Target: Nav 1.7 (Homo sapiens (Human), UniProt Q15858)
Test: Nav 1.7 in vitro PX assay (PatchXpress whole cell voltage clamp);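 also: holding potential set for 20 to 50% inactivation, sodium current evoked by a 20 ms step to −10 mV, peak current inhibition read after compound exposure, 3–5 cells per concentration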
Format: cell-based
Details: not given

Sequence of Nav 1.7 (Q15858 whole entry): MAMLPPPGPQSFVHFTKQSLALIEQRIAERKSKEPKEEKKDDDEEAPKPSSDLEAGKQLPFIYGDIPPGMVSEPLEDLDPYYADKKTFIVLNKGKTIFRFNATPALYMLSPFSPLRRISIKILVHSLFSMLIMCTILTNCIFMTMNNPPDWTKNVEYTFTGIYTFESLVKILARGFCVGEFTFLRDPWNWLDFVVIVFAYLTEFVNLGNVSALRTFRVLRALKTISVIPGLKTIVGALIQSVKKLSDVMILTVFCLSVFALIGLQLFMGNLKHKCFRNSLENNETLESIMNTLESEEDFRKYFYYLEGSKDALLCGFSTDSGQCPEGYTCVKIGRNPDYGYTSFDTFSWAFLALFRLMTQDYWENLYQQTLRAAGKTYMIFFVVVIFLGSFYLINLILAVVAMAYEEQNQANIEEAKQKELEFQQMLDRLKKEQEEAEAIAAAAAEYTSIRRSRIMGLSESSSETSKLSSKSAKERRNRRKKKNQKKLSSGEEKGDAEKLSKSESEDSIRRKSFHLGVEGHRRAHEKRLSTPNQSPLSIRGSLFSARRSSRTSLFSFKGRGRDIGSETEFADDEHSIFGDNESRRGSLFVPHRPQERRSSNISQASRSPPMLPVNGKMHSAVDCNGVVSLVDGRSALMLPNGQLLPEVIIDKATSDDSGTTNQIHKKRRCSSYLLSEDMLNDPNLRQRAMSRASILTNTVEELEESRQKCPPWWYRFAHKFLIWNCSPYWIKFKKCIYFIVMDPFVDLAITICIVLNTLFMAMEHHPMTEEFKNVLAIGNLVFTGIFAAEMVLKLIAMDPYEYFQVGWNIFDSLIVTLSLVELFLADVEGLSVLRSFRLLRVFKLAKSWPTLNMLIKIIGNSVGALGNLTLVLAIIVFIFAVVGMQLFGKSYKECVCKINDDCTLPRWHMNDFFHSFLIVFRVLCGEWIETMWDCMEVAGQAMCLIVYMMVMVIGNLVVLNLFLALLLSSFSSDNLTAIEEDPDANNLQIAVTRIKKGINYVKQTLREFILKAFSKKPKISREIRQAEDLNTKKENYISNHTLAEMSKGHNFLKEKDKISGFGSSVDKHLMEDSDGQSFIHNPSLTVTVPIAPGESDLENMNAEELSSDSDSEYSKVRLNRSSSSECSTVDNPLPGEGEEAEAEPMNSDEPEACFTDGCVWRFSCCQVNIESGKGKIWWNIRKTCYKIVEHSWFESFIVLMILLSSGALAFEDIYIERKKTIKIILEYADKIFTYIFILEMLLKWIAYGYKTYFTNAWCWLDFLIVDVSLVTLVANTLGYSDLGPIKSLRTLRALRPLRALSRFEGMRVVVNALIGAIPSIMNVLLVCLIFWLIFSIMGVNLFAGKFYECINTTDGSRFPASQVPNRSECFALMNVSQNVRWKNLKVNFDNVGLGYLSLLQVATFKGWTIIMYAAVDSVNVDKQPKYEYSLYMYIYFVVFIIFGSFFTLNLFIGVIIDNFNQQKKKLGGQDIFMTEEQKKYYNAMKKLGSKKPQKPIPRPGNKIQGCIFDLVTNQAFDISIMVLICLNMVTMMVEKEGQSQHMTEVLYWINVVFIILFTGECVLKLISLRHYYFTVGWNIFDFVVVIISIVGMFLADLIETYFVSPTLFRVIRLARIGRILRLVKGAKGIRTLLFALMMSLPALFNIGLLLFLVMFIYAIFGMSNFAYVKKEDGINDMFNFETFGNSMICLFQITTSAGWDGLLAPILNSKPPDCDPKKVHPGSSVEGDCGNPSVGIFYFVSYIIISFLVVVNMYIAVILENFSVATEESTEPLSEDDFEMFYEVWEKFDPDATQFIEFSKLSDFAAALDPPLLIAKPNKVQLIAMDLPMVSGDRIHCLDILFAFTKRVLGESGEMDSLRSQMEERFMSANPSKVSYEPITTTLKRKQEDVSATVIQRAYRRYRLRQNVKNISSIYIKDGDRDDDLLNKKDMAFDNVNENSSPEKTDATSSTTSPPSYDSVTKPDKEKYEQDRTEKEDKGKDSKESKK

SMILES	IC50 [nM]
COc1cc(C(F)(F)F)ccc1C1c2ccc(S(=O)(=O)Nc3ncns3)cc2CCN1C(C)=O (stereo not shown) [Example 51, 2-ACETYL-1-(2-METHOXY-4-(TRIFLUOROMETHYL)PHENYL)-N-(1,2,4-THIADIAZOL-5-YL)-1,2,3,4-TETRAHYDROISOQUINOLINE-6-SULFONAMIDE]	225

Same assay, conditions: HEK 293 cells stably transfected with human Nav1.7; PatchXpress; partially inactivated state

SMILES	IC50 [nM]
COc1cc(-c2cccc(F)c2)c(F)cc1-c1nc(Cl)cc2cc(S(=O)(=O)Nc3ccon3)ccc12 [Example 393, 3-CHLORO-1-(2,3′-DIFLUORO-5-METHOXY-4-BIPHENYLYL)-N-3-ISOXAZOLYL-6-ISOQUINOLINESULFONAMIDE]	157
COc1cc(F)c(-c2ccccn2)cc1-c1nccc2cc(S(=O)(=O)Nc3ccon3)ccc12 [Example 399]	28400
COc1cc(-c2cccc(F)c2)c(Cl)cc1-c1c(OC)ncc2cc(S(=O)(=O)Nc3ccon3)ccc12 [Example 401, 4-(2-CHLORO-3′-FLUORO-5-METHOXY-[1,1′-BIPHENYL]-4-YL)-N-(ISOXAZOL-3-YL)-3-METHOXYISOQUINOLINE-7-SULFONAMIDE]	613
COc1cc(-c2cc(F)cc(Cl)c2)c(F)cc1-c1c(=O)[nH]cc2cc(S(=O)(=O)Nc3ccon3)ccc12 [Example 550, 4-(3′-chloro-2,5′-difluoro-5-methoxy-4-biphenylyl)-N-3-isoxazolyl-3-oxo-2,3-dihydro-7-isoquinolinesulfonamide]	6
COc1cc(-c2cccc(F)c2)c(Cl)cc1-c1cn(C)c(=O)c2cc(S(=O)(=O)Nc3ccon3)ccc12 [Example 328, 4-(2-chloro-3′-fluoro-5-methoxy-[1,1′-biphenyl]-4-yl)-N-(isoxazol-3-yl)-2-methyl-1-oxo-1,2-dihydroisoquinoline-7-sulfonamide trifluoromethanesulfonate]	68
COc1ccc(F)c(-c2cc(OC)c(-c3ncnc4cc(S(=O)(=O)Nc5ccon5)ccc34)cc2C)c1 [Example 561, 4-(2′-fluoro-5,5′-dimethoxy-2-methyl-4-biphenylyl)-N-3-isoxazolyl-7-quinazolinesulfonamide]	89
COc1cc(-c2ccc(F)cc2F)c(C)cc1-c1ncnc2cc(S(=O)(=O)Nc3ccon3)ccc12 [Example 563, 4-(2′,4′-difluoro-5-methoxy-2-methyl-4-biphenylyl)-N-3-isoxazolyl-7-quinazolinesulfonamide]	105
COc1cc(-c2cc(F)cc(C(F)F)c2)c(F)cc1-c1nccc2cc(S(=O)(=O)Nc3ccon3)ccc12 [Example 362, 1-(3′-(difluoromethyl)-2,5′-difluoro-5-methoxy-[1,1′-biphenyl]-4-yl)-N-(isoxazol-3-yl)isoquinoline-6-sulfonamide]	52
COc1cc(-c2cccc(Cl)c2)c(F)cc1-c1ncnc2cc(S(=O)(=O)Nc3ncccn3)ccc12 [Example 315, 4-(3′-chloro-2-fluoro-5-methoxy-4-biphenylyl)-N-2-pyrimidinyl-7-quinazolinesulfonamide]	48
COc1cc(-c2ccc(F)c(C3CC3)c2)c(C)cc1-c1ncnc2cc(S(=O)(=O)Nc3ccon3)ccc12 [Example 554, 4-(3′-cyclopropyl-4′-fluoro-5-methoxy-2-methyl-4-biphenylyl)-N-3-isoxazolyl-7-quinazolinesulfonamide]	34
COc1cc(-c2cccc(F)c2)c(Cl)cc1-c1c(=O)n(C)cc2cc(S(=O)(=O)Nc3ccon3)ccc12 [Example 402, 4-(2-CHLORO-3′-FLUORO-5-METHOXY-[1,1′-BIPHENYL]-4-YL)-N-(ISOXAZOL-3-YL)-2-METHYL-3-OXO-2,3-DIHYDROISOQUINOLINE-7-SULFONAMIDE]	39
COc1cc(-c2cccc(F)c2)c(Cl)cc1-c1c(O)cnc2cc(S(=O)(=O)Nc3ccon3)ccc12 (atropisomer, axis not shown; (P)) [Example 338, (P)-4-(2-chloro-3′-fluoro-5-methoxy-[1,1′-biphenyl]-4-yl)-3-hydroxy-N-(isoxazol-3-yl)quinoline-7-sulfonamide]	41
COc1cc(-c2cccc(F)c2)c(Cl)cc1-c1c(C#N)cnc2cc(S(=O)(=O)Nc3ccon3)ccc12 (atropisomer, axis not shown; (P)) [Example 335, (P)-4-(2-chloro-3′-fluoro-5-methoxy-[1,1′-biphenyl]-4-yl)-3-cyano-N-(isoxazol-3-yl)quinoline-7-sulfonamide]	112

Same assay, conditions: PatchXpress (PX)

SMILES	IC50 [nM]
COc1cc(-c2ccc(Cl)c(C)c2)c(C)cc1-c1nccc2cc(S(=O)(=O)Nc3ccon3)ccc12 [Example 253, 1-(4′-chloro-5-methoxy-2,3′-dimethyl-4-biphenylyl)-N-3-isoxazolyl-6-isoquinolinesulfonamide]	118
COc1cc(C(F)F)c(C)cc1-c1nccc2cc(S(=O)(=O)Nc3ccon3)ccc12 [Example 250, 1-(4-(difluoromethyl)-2-methoxy-5-methylphenyl)-N-3-isoxazolyl-6-isoquinolinesulfonamide]	728
COc1cc(-c2cc(C)cc(F)c2)c(C)cc1-c1nccc2cc(S(=O)(=O)Nc3ccon3)ccc12 [Example 273, 1-(3′-fluoro-5-methoxy-2,5′-dimethyl-4-biphenylyl)-N-3-isoxazolyl-6-isoquinolinesulfonamide]	73.3
COc1cc(-c2cc(F)cc(Cl)c2)c(C)cc1-c1ncnc2cc(S(=O)(=O)Nc3ccon3)ccc12 [Example 270, 4-(3′-chloro-5′-fluoro-5-methoxy-2-methyl-4-biphenylyl)-N-3-isoxazolyl-7-quinazolinesulfonamide]	29.9
COc1ccc(Cl)cc1-c1cc(OC)c(-c2ncnc3cc(S(=O)(=O)Nc4ccon4)ccc23)cc1C [Example 266, 4-(5′-chloro-2′,5-dimethoxy-2-methyl-4-biphenylyl)-N-3-isoxazolyl-7-quinazolinesulfonamide]	18.1
COc1cc(-c2cccc(C)c2)c(C)cc1-c1nccc2cc(S(=O)(=O)Nc3ccon3)ccc12 [Example 276, N-3-isoxazolyl-1-(5-methoxy-2,3′-dimethyl-4-biphenylyl)-6-isoquinolinesulfonamide]	169
COc1cc(-c2ccc(F)c(Cl)c2)c(C)cc1-c1ncnc2cc(S(=O)(=O)Nc3ccon3)ccc12 [Example 269, 4-(3′-chloro-4′-fluoro-5-methoxy-2-methyl-4-biphenylyl)-N-3-isoxazolyl-7-quinazolinesulfonamide]	25.2

Same assay, conditions: in-vitro Nav 1.7 PX (PatchXpress)

SMILES	IC50 [nM]
COc1cc(-c2cc(F)cc(Cl)c2)c(F)cc1-c1ncnc2cc(S(=O)(=O)Nc3ccon3)ccc12 [Example 302, 4-(3′-chloro-2,5′-difluoro-5-methoxy-4-biphenylyl)-N-3-isoxazolyl-7-quinazolinesulfonamide]	22
COc1cc(-c2ccc(C)c(Cl)c2F)c(F)cc1-c1ncnc2cc(S(=O)(=O)Nc3ccon3)ccc12 [Example 296, 4-(3′-chloro-2,2′-difluoro-5-methoxy-4′-methyl-4-biphenylyl)-N-3-isoxazolyl-7-quinazolinesulfonamide]	105
COc1ccc(F)cc1-c1cc(OC)c(-c2nccc3cc(S(=O)(=O)Nc4ccon4)ccc23)cc1C [Example 280, 1-(5′-fluoro-2′,5-dimethoxy-2-methyl-4-biphenylyl)-N-3-isoxazolyl-6-isoquinolinesulfonamide]	60.3
COc1cc(-c2cc(Cl)cc(Cl)c2)c(F)cc1-c1ncnc2cc(S(=O)(=O)Nc3ccon3)ccc12 [Example 300, 4-(3′,5′-dichloro-2-fluoro-5-methoxy-4-biphenylyl)-N-3-isoxazolyl-7-quinazolinesulfonamide]	26

Source: patent publication US9776995B2, “Bicyclic sulfonamide compounds as sodium channel inhibitors” (AMGEN INC., priority 2013, dated 2017)
